Consider 38 compounds from patent US8344181B2, “N-2 adamantanyl-2-phenoxy-acetamide derivatives as 11-beta hydroxysteroid dehydrogenase inhibitors” (Janssen Pharmaceutica N.V., priority 2004, dated 2013).

Some results are limits rather than exact numbers.

One assay addresses T1, 11β-HSD2 (Homo sapiens, UniProt P80365).
T1 construct: endogenous in cells; host or cells: HepG2 (ATCC HB-8065)
T1 sequence (P80365 1-405): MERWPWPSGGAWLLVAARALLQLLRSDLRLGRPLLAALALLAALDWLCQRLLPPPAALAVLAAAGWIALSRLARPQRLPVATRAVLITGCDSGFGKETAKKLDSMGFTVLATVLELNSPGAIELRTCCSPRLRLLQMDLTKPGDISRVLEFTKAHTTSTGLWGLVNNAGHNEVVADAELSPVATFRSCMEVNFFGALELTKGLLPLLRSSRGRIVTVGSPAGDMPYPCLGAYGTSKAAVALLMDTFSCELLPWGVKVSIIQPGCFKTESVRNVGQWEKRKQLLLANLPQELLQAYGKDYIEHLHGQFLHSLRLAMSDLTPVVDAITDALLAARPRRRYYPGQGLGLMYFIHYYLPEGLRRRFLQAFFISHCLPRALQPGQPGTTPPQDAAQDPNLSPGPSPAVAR
Nature of the assay: Cellular assay of 11β-HSD2 activity in HepG2 cells. The class given is cell-based. Conditions: 4 hour pre-incubation, 10^-5M to 10^-10M, read-out: HSD2 cellular HepG2 Score. The procedure:
The effects on 11β-HSD2 activity was studied in HepG2 and LCC-PK1-cells HepG2-cells (ATCC HB-8065) were seeded in 12 well plates at a density of 100,000 cells/ml and grown at 37° C. in a humidified 5% CO2 atmosphere in MEM-Rega-3 medium supplemented with 10% heat inactivated foetal calf serum, 2 mM L-glutamine and sodium bicarbonate). Medium was refreshed twice a week.
Following a 4 hour pre-incubation with test compound, 0.5 μCi ^3H-cortisol or corticosterone, was added to the cultures. One hour later, the medium was extracted on Extrelut^3-columns with 15 ml diethyl ether and the extract was analysed by HPLC as described above.
(§1) As for the enzymatic assays, the compounds to be tested were taken from a stock solution and tested at a final concentration ranging from 10^−5M to 10^−10M. From the thus obtained dose response curves, the pIC50 value was calculated and scored as follows; Score 1=pIC50 value<5, Score 2=pIC50 value in the range of 5 to 6, Score 3=pIC50 value>6. (in this table NT stands for Not Tested).

A further assay concerns the target T2, 11β-HSD1 (Mus musculus, UniProt P50172).
T2 construct: endogenous in cells; host or cells: 3T3-L1 (ATCC-CL-173), differentiated into adipocytes
In words: Cellular assay of 11β-HSD1 activity in differentiated 3T3-L1 cells. The assay is classed as cell-based. Conditions: 4 hour pre-incubation, 10^-5M to 10^-10M, read-out: HSD1 cellular 3T3-L1 Score. The procedure:
The effects on 11β-HSD1 activity was measured in differentiated 3T3-L1 cells and rat hepatocytes.
Mouse fibroblast 3T3-L1 cells (ATCC-CL-173) were seeded at a density of 16500 cells/ml in 12 well plates and grown for 7 days in DMEM medium (supplemented with 10% heat inactivated foetal calf serum, 2 mM glutamine and 25 mg gentamycin) at 37° C. in a humidified 5% CO2 atmosphere. Medium was refreshed twice a week. Fibroblasts were differentiated into adipocytes at 37° C. in a 5% CO2 humidified atmosphere in growth medium containing 2 μg/ml insulin, 55 μg/ml IBMX and 39.2 μg/ml dexamethasone.
Primary hepatocytes from male rats were seeded on normal Falcon 12 well plates at a density of 250000 cells/well and incubated for 16 hours at 37° C. in a 5% CO2 humidified atmosphere in DMEM-HAM's F12 medium containing 5% Nu-serum, 100 U/ml penicillin, 100 μg/ml streptomycin, 0.25 μg/ml amphotericin B, 50 μg/ml gentamycin sulfate, 5 μg/ml insulin and 392 ng/ml dexamethasone. Following a 4 hour pre-incubation with test compound, 0.5 μCi ^3H-cortisone or dehydrocorticosterone, was added to the 3T3-L1 cultures. One hour later, the medium was extracted on Extrelut^3-columns with 15 ml diethyl ether and the extract was analysed by HPLC as described above. The effects of JNJ-compounds on rat hepatocyte HSD1 activity was measured after an incubation period of 90 minutes with 0.5 μCi^3H-dehydrocorticosterone. Corticosterone formation was analysed by HPLC.
as §1

T2 sequence (P50172 whole entry): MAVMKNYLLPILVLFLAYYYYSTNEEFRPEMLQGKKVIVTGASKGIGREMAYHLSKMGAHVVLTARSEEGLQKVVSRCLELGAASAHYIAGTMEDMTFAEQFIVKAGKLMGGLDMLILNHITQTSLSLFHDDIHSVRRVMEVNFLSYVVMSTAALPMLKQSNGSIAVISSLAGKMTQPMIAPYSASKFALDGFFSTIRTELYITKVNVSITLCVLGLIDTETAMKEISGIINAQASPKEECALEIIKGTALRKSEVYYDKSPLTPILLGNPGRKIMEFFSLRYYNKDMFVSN

For the compound `COc1cc(OC)cc(OC(C)(C)C(=O)N[C@H]2[C@@H]3CC4C[C@H]2C[C@](O)(C4)C3)c1` [Compound 17], the figures for the IC50 on 11β-HSD2 and at 11β-HSD1 were 1 to 10 µM and < 1000 nM, respectively.
`Cc1ccc(OC(C)(C)C(=O)NC2C3CC4CC2CC(c2ccccc2)(C4)C3)cc1` (stereo not shown) [Compound 49]: the values for the IC50 on 11β-HSD2 and at 11β-HSD1 were > 10 µM and 1000 to 10000 nM, respectively.
`COc1ccc(NC(C)(C)C(=O)N[C@H]2[C@@H]3CC4C[C@H]2C[C@](F)(C4)C3)cc1` [Compound 59]: the values for the IC50 on 11β-HSD2 and at 11β-HSD1 were > 10 µM and < 1000 nM, respectively.
Regarding `CC(C)(Nc1ccccc1)C(=O)N[C@H]1[C@@H]2CC3C[C@H]1C[C@](O)(C3)C2` [Compound 54], the IC50 at 11β-HSD2 is > 10 µM; on 11β-HSD1, < 1000 nM.
As to `CN1CC(C(=O)N[C@@H]2[C@@H]3CC4C[C@H]2C[C@@](O)(C4)C3)Oc2ccccc21` (stereo partly shown) [Compound 6], the IC50 is > 10 µM at 11β-HSD2 and < 1000 nM on 11β-HSD1.
In the case of `O=C(N[C@H]1[C@@H]2CC3C[C@H]1C[C@](O)(C3)C2)C1COc2ccccc2O1` (stereo partly shown) [Compound 8], the IC50 is 1 to 10 µM on 11β-HSD2 and < 1000 nM at 11β-HSD1.
Consider `COc1ccc(NC(C)(C)C(=O)N[C@H]2[C@@H]3CC4C[C@H]2C[C@](NC(C)=O)(C4)C3)cc1` [Compound 76], for which the IC50 on 11β-HSD2 is > 10 µM; on 11β-HSD1, < 1000 nM.
In the same order, the values of `Cc1cccc(OC(C)(C)C(=O)N[C@H]2[C@@H]3CC4C[C@H]2C[C@](O)(C4)C3)c1` [Compound 10] are 1 to 10 µM and < 1000 nM.
Take `CC(C)(Sc1ccc(Cl)cc1)C(=O)N[C@H]1[C@@H]2CC3C[C@H]1C[C@](O)(C3)C2` [Compound 4]: the IC50 at 11β-HSD2 is 1 to 10 µM; at 11β-HSD1 it was < 1000 nM.
With `CC(C)(Nc1cccc(C(F)(F)F)c1)C(=O)N[C@H]1[C@@H]2CC3C[C@H]1C[C@](O)(C3)C2` [Compound 60], the IC50 at 11β-HSD2 was > 10 µM; on 11β-HSD1 it was < 1000 nM.
Regarding `Cc1cccc(NC(C)(C)C(=O)N[C@H]2[C@@H]3CC4C[C@H]2C[C@](F)(C4)C3)c1` [Compound 57], the IC50 at 11β-HSD2 was > 10 µM; at 11β-HSD1, < 1000 nM.
On to `Cc1ccc(S(=O)(=O)N[C@@]23CC4C[C@H](C2)[C@H](NC(=O)C(C)(C)Oc2cccc(C(F)(F)F)c2)[C@@H](C4)C3)cc1` [Compound 89], for which the IC50 on 11β-HSD2 was > 10 µM; at 11β-HSD1, < 1000 nM.
Turning to `Cc1ccc(OC(C)(C)C(=O)N[C@H]2[C@@H]3CC4C[C@H]2C[C@](O)(C4)C3)cc1` [Compound 13], the values for the IC50 at 11β-HSD2 and on 11β-HSD1 were < 1 µM and < 1000 nM, respectively.
Take `Cc1cc(Cl)ccc1OC(C)(C)C(=O)N[C@H]1[C@@H]2CC3C[C@H]1C[C@](NS(C)(=O)=O)(C3)C2` [Compound 33]: the IC50 is 1 to 10 µM on 11β-HSD2 and < 1000 nM on 11β-HSD1.
On to `Cc1cc(Cl)ccc1OC(C)(C)C(=O)N[C@H]1[C@@H]2CC3C[C@H]1C[C@](NC(=O)CN(C)CCO)(C3)C2` [Compound 42], for which the values for the IC50 on 11β-HSD2 and on 11β-HSD1 were 1 to 10 µM and < 1000 nM, respectively.
With `COc1cccc(NC(C)(C)C(=O)N[C@H]2[C@@H]3CC4C[C@H]2C[C@](F)(C4)C3)c1` [Compound 56], the IC50 is > 10 µM on 11β-HSD2 and < 1000 nM at 11β-HSD1.
In the same order, the values of `CC(C)(Oc1cccc(C(F)(F)F)c1)C(=O)N[C@H]1[C@@H]2CC3C[C@H]1C[C@](NS(C)(=O)=O)(C3)C2` [Compound 83] are 1 to 10 µM and < 1000 nM.
For the compound `CC(C)(Oc1cccc(C(F)(F)F)c1)C(=O)N[C@H]1[C@@H]2CC3C[C@H]1C[C@](NS(=O)(=O)CC(F)(F)F)(C3)C2` [Compound 88], the IC50 at 11β-HSD2 is 1 to 10 µM; on 11β-HSD1, < 1000 nM.
As for `Cc1cc(Cl)ccc1OC(C)(C)C(=O)N[C@H]1[C@@H]2CC3C[C@H]1C[C@](N1CCCC1=O)(C3)C2` [Compound 39], the IC50 is < 1 µM on 11β-HSD2 and < 1000 nM at 11β-HSD1.
`Cc1ccc(NC(C)(C)C(=O)N[C@H]2[C@@H]3CC4C[C@H]2C[C@](O)(C4)C3)cc1` [Compound 27]: the IC50 on 11β-HSD2 was > 10 µM; at 11β-HSD1 it was < 1000 nM.
Regarding `CC(C)(Oc1ccccc1Br)C(=O)N[C@H]1[C@@H]2CC3C[C@H]1C[C@](O)(C3)C2` [Compound 15], the IC50 on 11β-HSD2 is < 1 µM; at 11β-HSD1, < 1000 nM.
Turning to `Cc1ccc(OC(C)(C)C(=O)N[C@H]2[C@@H]3CC4C[C@H]2C[C@](OC(=O)CN2CCOCC2)(C4)C3)cc1` [Compound 41], the IC50 on 11β-HSD2 is 1 to 10 µM; on 11β-HSD1 it was < 1000 nM.
Consider `Cc1cc(Cl)ccc1OC(C)(C)C(=O)N[C@H]1[C@@H]2CC3C[C@H]1C[C@](N)(C3)C2` [Compound 32], for which the IC50 is > 10 µM on 11β-HSD2 and < 1000 nM on 11β-HSD1.
Turning to `CC(=O)N[C@@]12CC3C[C@H](C1)[C@H](NC(=O)C(C)(C)Nc1ccc(C)cc1)[C@@H](C3)C2` [Compound 37], the figures for the IC50 at 11β-HSD2 and at 11β-HSD1 were > 10 µM and < 1000 nM, respectively.
In the same order, the values of `COC(=O)c1cccc(NC(C)(C)C(=O)N[C@H]2[C@@H]3CC4C[C@H]2C[C@](O)(C4)C3)c1` [Compound 75] are > 10 µM and < 1000 nM.
On to `CC(C)(Nc1cccc(C(F)(F)F)c1)C(=O)N[C@H]1[C@@H]2CC3C[C@H]1C[C@](NC(=O)CCl)(C3)C2` [Compound 80], for which the IC50 was 1 to 10 µM at 11β-HSD2 and < 1000 nM on 11β-HSD1.
As to `Cc1cccc(NC(C)(C)C(=O)N[C@H]2[C@@H]3CC4C[C@H]2C[C@](O)(C4)C3)c1` [Compound 55], the IC50 is > 10 µM at 11β-HSD2 and < 1000 nM at 11β-HSD1.
As to `COc1cccc(OC(C)(C)C(=O)N[C@H]2[C@@H]3CC4C[C@H]2C[C@](O)(C4)C3)c1` [Compound 14], the values for the IC50 at 11β-HSD2 and at 11β-HSD1 were < 1 µM and < 1000 nM, respectively.
`CC(C)(C(=O)N[C@H]1[C@@H]2CC3C[C@H]1C[C@](O)(C3)C2)S(=O)(=O)c1ccc(Cl)cc1` [Compound 3]: the figures for the IC50 at 11β-HSD2 and at 11β-HSD1 were < 1 µM and < 1000 nM, respectively.
The corresponding values for `Cc1cc(Cl)ccc1OC(C)(C)C(=O)N[C@H]1[C@@H]2CC3C[C@H]1C[C@](N(C)C)(C3)C2` [Compound 46] are > 10 µM and < 1000 nM.
For `Cc1cc(Cl)ccc1OC(C)(C)C(=O)N[C@H]1[C@@H]2CC3C[C@H]1C[C@](NC(=O)CCl)(C3)C2` [Compound 31], the values for the IC50 at 11β-HSD2 and on 11β-HSD1 were 1 to 10 µM and < 1000 nM, respectively.
Consider `Cc1ccccc1OC(C)(C)C(=O)N[C@H]1[C@@H]2CC3C[C@H]1C[C@](O)(C3)C2` [Compound 12], for which the IC50 was < 1 µM on 11β-HSD2 and < 1000 nM at 11β-HSD1.
The corresponding values for `COC(=O)CC(=O)N[C@@]12CC3C[C@H](C1)[C@H](NC(=O)C(C)(C)Oc1ccc(Cl)cc1C)[C@@H](C3)C2` [Compound 38] are 1 to 10 µM and < 1000 nM.
In the same order, the values of `CC(C)(Oc1cccc(C(F)(F)F)c1)C(=O)N[C@H]1[C@@H]2CC3C[C@H]1C[C@](N)(C3)C2` [Compound 81] are > 10 µM and < 1000 nM.
Consider `CC(=O)N[C@@]12CC3C[C@H](C1)[C@H](NC(=O)C(C)(C)Nc1cccc(C)c1)[C@@H](C3)C2` [Compound 70], for which the IC50 is 1 to 10 µM at 11β-HSD2 and < 1000 nM at 11β-HSD1.
Take `Cc1cc(Cl)ccc1OC(C)(C)C(=O)N[C@H]1[C@@H]2CC3C[C@H]1C[C@](O)(C3)C2` [Compound 1]: the IC50 was < 1 µM on 11β-HSD2 and < 1000 nM at 11β-HSD1.
As for `Cc1c(C(=O)N[C@H]2[C@@H]3CC4C[C@H]2C[C@](O)(C4)C3)oc2ccccc12` [Compound 7], the IC50 on 11β-HSD2 is > 10 µM; on 11β-HSD1, < 1000 nM.
The corresponding values for `O=C(N[C@H]1[C@@H]2CC3C[C@H]1C[C@](O)(C3)C2)C1Cc2ccccc2O1` (stereo partly shown) [Compound 24] are 1 to 10 µM and < 1000 nM.
